{"source": "paper PMC8600295", "about": "“Inhibition of iduronic acid biosynthesis by ebselen reduces glycosaminoglycan accumulation in mucopolysaccharidosis type I fibroblasts” (Glycobiology, 2021)", "type_in_all_cases": "biochemical", "key": {"[1]": {"target": "T1, HSepi (heparan sulfate glucuronyl C5-epimerase) (Homo sapiens, UniProt O94923)", "T1 construct": "gene GLCE; full-length, myc-HIS fusion", "T1 sequence (O94923 1-617)": "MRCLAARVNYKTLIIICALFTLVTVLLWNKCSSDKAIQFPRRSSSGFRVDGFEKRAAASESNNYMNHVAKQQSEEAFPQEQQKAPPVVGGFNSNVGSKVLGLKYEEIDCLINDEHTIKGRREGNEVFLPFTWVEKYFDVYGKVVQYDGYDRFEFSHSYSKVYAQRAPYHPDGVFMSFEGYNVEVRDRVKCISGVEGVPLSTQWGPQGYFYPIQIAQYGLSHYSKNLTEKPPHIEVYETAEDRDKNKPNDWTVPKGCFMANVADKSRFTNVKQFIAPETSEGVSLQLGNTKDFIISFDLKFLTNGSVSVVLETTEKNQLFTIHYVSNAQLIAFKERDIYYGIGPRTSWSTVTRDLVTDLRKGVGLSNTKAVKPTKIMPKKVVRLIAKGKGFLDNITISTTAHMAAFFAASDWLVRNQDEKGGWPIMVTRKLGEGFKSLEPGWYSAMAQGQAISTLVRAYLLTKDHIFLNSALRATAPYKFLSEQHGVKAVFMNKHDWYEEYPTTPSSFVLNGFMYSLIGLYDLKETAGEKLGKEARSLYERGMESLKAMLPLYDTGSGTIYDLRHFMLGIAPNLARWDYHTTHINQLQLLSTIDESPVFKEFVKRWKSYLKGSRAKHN", "experiment": "epimerase activity assay (3H release from [[…]-3H]-N-sulfated K5 polysaccharide) with recombinant enzyme"}, "[2]": {"target": "T2, D4ST1 (DS 4-O-sulfotransferase 1) (Homo sapiens, UniProt Q8NCH0)", "T2 construct": "gene CHST14; D4ST1-HIS (amino acid 61–376)", "T2 sequence (Q8NCH0 61-376)": "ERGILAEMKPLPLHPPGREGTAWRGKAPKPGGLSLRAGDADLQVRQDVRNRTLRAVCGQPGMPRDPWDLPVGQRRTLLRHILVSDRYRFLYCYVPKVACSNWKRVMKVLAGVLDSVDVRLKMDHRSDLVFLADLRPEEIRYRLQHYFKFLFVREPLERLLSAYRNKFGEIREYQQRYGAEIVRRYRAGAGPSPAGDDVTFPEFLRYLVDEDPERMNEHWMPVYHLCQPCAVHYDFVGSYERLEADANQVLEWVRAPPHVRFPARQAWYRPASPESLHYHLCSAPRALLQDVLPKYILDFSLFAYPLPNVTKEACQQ", "experiment": "sulfotransferase activity assay ([…]PAPS incorporation) with recombinant enzyme"}, "DS-epi1 (DS-epimerase 1)": {"target": "T3, DS-epi1 (DS-epimerase 1) (Homo sapiens, UniProt Q9UL01)", "T3 construct": "gene DSE; truncated form (amino acid 23–775-HIS)", "experiment": "epimerase activity assay (3H release from [[…]-3H]dK4) with recombinant enzyme; dialysis irreversibility test; Lineweaver-Burk kinetics"}}}
{"smiles": "O=c1c2ccccc2[se]n1-c1ccccc1", "note": "[ebselen, 2-phenyl-1,2-benzoisoselenazol-3(2H)-one]", "values": [{"measurement": "IC50", "setting": "[1]", "result": 800, "unit": "nM"}, {"measurement": "IC50", "setting": "[2]", "result": 1500, "unit": "nM"}, {"measurement": "IC50", "setting": "DS-epi1 (DS-epimerase 1)", "result": 7000, "unit": "nM"}]}
